Measurements as given in PubChem BioAssay AID248 (DTP/NCI, 2004).
Where “and” joins values, the source holds several entries; their conditions need not be identical. Equal entries are not always repeated. Inconclusive results and toxic doses are left out. No stated cut-off is given here; in the data, active means T/C of 150% or more; inactive means T/C below 125%.

Tested on: L1210 leukemia ip in BDF1 mice, survival T/C
Assay: NCI In Vivo Anticancer Drug Screen. Data for tumor model L1210 Leukemia (intraperitoneal) in B6D2F1 (BDF1) mice
Details: endpoint: mean survival time, higher = longer survival
How it was run: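 Tumor cells were implanted, animals were treated, and survival was followed. The result divides the treated measurement by the vehicle-control measurement.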

[1] = dose: 50.0 mg/kg/injection, schedule: Q01DX009 (ip), vehicle: saline
[2] = dose: 100.0 mg/kg/injection, schedule: Q01DX009 (ip), vehicle: saline
[3] = dose: 200.0 mg/kg/injection, schedule: Q01DX009 (ip), vehicle: saline
[4] = dose: 25.0 mg/kg/injection, schedule: Q04DX003 (ip), vehicle: saline
[5] = dose: 50.0 mg/kg/injection, schedule: Q04DX003 (ip), vehicle: saline
[6] = dose: 400.0 mg/kg/injection, schedule: Q01DX009 (ip), vehicle: saline
[7] = dose: 100.0 mg/kg/injection, schedule: Q01DX009 (ip), vehicle: saline with Tween-80
[8] = dose: 100.0 mg/kg/injection, schedule: Q04DX003 (ip), vehicle: saline with Tween-80
[9] = dose: 200.0 mg/kg/injection, schedule: Q01DX009 (ip), vehicle: saline with Tween-80
[10] = dose: 200.0 mg/kg/injection, schedule: Q04DX003 (ip), vehicle: saline with Tween-80
[11] = dose: 400.0 mg/kg/injection, schedule: Q01DX009 (ip), vehicle: saline with Tween-80
[12] = dose: 400.0 mg/kg/injection, schedule: Q04DX003 (ip), vehicle: saline with Tween-80
[13] = dose: 50.0 mg/kg/injection, schedule: Q01DX001 (ip), vehicle: carboxymethylcellulose (CMC)
[14] = dose: 50.0 mg/kg/injection, schedule: Q01DX009 (ip), vehicle: saline with Tween-80
[15] = dose: 100.0 mg/kg/injection, schedule: Q01DX001 (ip), vehicle: saline
[16] = dose: 200.0 mg/kg/injection, schedule: Q01DX001 (ip), vehicle: saline
[17] = dose: 100.0 mg/kg/injection, schedule: Q01DX001 (ip), vehicle: Klucel (hydroxypropylcellulose) (HPC)
[18] = dose: 200.0 mg/kg/injection, schedule: Q01DX001 (ip), vehicle: Klucel (hydroxypropylcellulose) (HPC)
[19] = dose: 400.0 mg/kg/injection, schedule: Q01DX001 (ip), vehicle: Klucel (hydroxypropylcellulose) (HPC)

Measured: T/C

O=c1cc(Oc2ccccc2)[nH]c(=O)[nH]1
inactive: dose: 65.0 mg/kg/injection, schedule: Q01DX001 (ip), vehicle: Klucel (hydroxypropylcellulose) (HPC) 112 % of control | dose: 130.0 mg/kg/injection, schedule: Q01DX001 (ip), vehicle: Klucel (hydroxypropylcellulose) (HPC) 93 % of control | dose: 260.0 mg/kg/injection, schedule: Q01DX001 (ip), vehicle: Klucel (hydroxypropylcellulose) (HPC) 93 % of control

Cn1c(=O)c2n[se]nc2n(C)c1=O
inactive: dose: 3.12 mg/kg/injection, schedule: Q01DX009 (ip), vehicle: Klucel (hydroxypropylcellulose) (HPC) 91 % of control | dose: 3.12 mg/kg/injection, schedule: Q04DX002 (ip), vehicle: Klucel (hydroxypropylcellulose) (HPC) 102 % of control | dose: 6.25 mg/kg/injection, schedule: Q01DX009 (ip), vehicle: Klucel (hydroxypropylcellulose) (HPC) 94 % of control | dose: 6.25 mg/kg/injection, schedule: Q04DX002 (ip), vehicle: Klucel (hydroxypropylcellulose) (HPC) 105 % of control | dose: 12.5 mg/kg/injection, schedule: Q04DX002 (ip), vehicle: Klucel (hydroxypropylcellulose) (HPC) 108 % of control and 111 % of control | dose: 25.0 mg/kg/injection, schedule: Q04DX002 (ip), vehicle: Klucel (hydroxypropylcellulose) (HPC) 108 % of control

C[n+]1cccc(C(=O)NN=C2CCCCC2)c1
inactive: dose: 100.0 mg/kg/injection, schedule: Q01DX001 (ip), vehicle: saline with Tween-80 93 % of control | dose: 200.0 mg/kg/injection, schedule: Q01DX001 (ip), vehicle: saline with Tween-80 102 % of control | dose: 400.0 mg/kg/injection, schedule: Q01DX001 (ip), vehicle: saline with Tween-80 94 % of control

Cc1ccc(NN=Nc2ccccc2C#N)cc1
inactive: [1] 92 % of control | [2] 92 % of control | dose: 100.0 mg/kg/injection, schedule: Q04DX003 (ip), vehicle: acetone 110 % of control | [3] 88 % of control | dose: 200.0 mg/kg/injection, schedule: Q04DX003 (ip), vehicle: acetone 100 % of control | dose: 400.0 mg/kg/injection, schedule: Q04DX003 (ip), vehicle: acetone 103 % of control

C#CCN(C)C(C)=O
inactive: dose: 25.0 mg/kg/injection, schedule: Q01DX009 (ip), vehicle: saline 104 % of control | [4] 95 % of control | [1] 102 % of control | [5] 101 % of control | [2] 105 % of control | dose: 100.0 mg/kg/injection, schedule: Q04DX003 (ip), vehicle: saline 96 % of control and 101 % of control

Cc1cc(Cl)cc(C)c1OC(=O)Nc1ccccc1C(F)(F)F
inactive: [2] 98 % of control | [3] 91 % of control | [6] 112 % of control

CC(NCCN1CC1)C1CC1 (stereo unspecified)
inactive: dose: 20.0 mg/kg/injection, schedule: Q01DX009 (ip), vehicle: saline 120 % of control

O=C(O)c1cc(N=Nc2ccccc2C(=O)O)ccc1O
inactive: dose: 100.0 mg/kg/injection, schedule: Q04DX003 (ip), vehicle: Klucel (hydroxypropylcellulose) (HPC) 92 % of control | dose: 200.0 mg/kg/injection, schedule: Q04DX003 (ip), vehicle: Klucel (hydroxypropylcellulose) (HPC) 94 % of control | dose: 400.0 mg/kg/injection, schedule: Q04DX003 (ip), vehicle: Klucel (hydroxypropylcellulose) (HPC) 112 % of control

C1=Cc2cccc3c2N(C1)CCC3 (tested in a mixture with another compound)
inactive: [7] 103 % of control | [8] 109 % of control | [9] 107 % of control | [10] 93 % of control | [11] 95 % of control | [12] 98 % of control

Cc1cc(=O)oc2c(CN3CCCCC3)c(O)ccc12
inactive: dose: 5.0 mg/kg/injection, schedule: Q01DX001 (ip), vehicle: carboxymethylcellulose (CMC) 93 % of control | dose: 10.0 mg/kg/injection, schedule: Q01DX001 (ip), vehicle: carboxymethylcellulose (CMC) 90 % of control | dose: 20.0 mg/kg/injection, schedule: Q01DX001 (ip), vehicle: carboxymethylcellulose (CMC) 104 % of control

c1cnc(OCCN2CC2)nc1
inactive: dose: 25.0 mg/kg/injection, schedule: Q01DX001 (ip), vehicle: carboxymethylcellulose (CMC) 93 % of control | [13] 95 % of control

CC1CN(CC2CCCCCCCCCCC2=O)CC(C)O1 (stereo unspecified)
inactive: dose: 100.0 mg/kg/injection, schedule: Q04DX002 (ip), vehicle: Klucel (hydroxypropylcellulose) (HPC) 116 % of control | dose: 200.0 mg/kg/injection, schedule: Q04DX002 (ip), vehicle: Klucel (hydroxypropylcellulose) (HPC) 90 % of control

O=C(CCC(=O)c1ccc(Br)cc1)c1ccc(Br)cc1
inactive: [13] 92 % of control | dose: 100.0 mg/kg/injection, schedule: Q01DX001 (ip), vehicle: carboxymethylcellulose (CMC) 97 % of control | dose: 200.0 mg/kg/injection, schedule: Q01DX001 (ip), vehicle: carboxymethylcellulose (CMC) 103 % of control | dose: 400.0 mg/kg/injection, schedule: Q01DX001 (ip), vehicle: carboxymethylcellulose (CMC) 90 % of control

NC(c1ccccc1)C(N)c1ccccc1 (stereo unspecified)
inactive: [14] 104 % of control | [7] 102 % of control and 92 % of control | dose: 100.0 mg/kg/injection, schedule: Q04DX003 (ip), vehicle: other 91 % of control | [8] 98 % of control | [9] 95 % of control and 110 % of control | [10] 96 % of control | [11] 98 % of control

CC(Br)C(Br)CO (stereo unspecified)
inactive: [2] 103 % of control | [3] 102 % of control | [6] 100 % of control

C/C=C/C=C/COC(=O)C(C)(C)C
inactive: dose: 50.0 mg/kg/injection, schedule: Q04DX002 (ip), vehicle: saline 103 % of control | dose: 100.0 mg/kg/injection, schedule: Q04DX002 (ip), vehicle: saline 95 % of control and 96 % of control | dose: 200.0 mg/kg/injection, schedule: Q04DX002 (ip), vehicle: saline 98 % of control | dose: 400.0 mg/kg/injection, schedule: Q04DX002 (ip), vehicle: saline 96 % of control and 107 % of control

Nc1ncnc2c1ncn2CCCCCCl
inactive: dose: 12.5 mg/kg/injection, schedule: Q04DX003 (ip), vehicle: saline 90 % of control | [4] 88 % of control | [5] 100 % of control

CC1CCC2C(CCC3CCCCC32)C1 (stereo unspecified)
inactive: [15] 107 % of control | [16] 107 % of control

CCNCC(=O)Nc1ccccc1C(=O)OCC
inactive: dose: 222.0 mg/kg/injection, schedule: Q01DX Z (ip), vehicle: saline 113 % of control | dose: 333.0 mg/kg/injection, schedule: Q01DX Z (ip), vehicle: saline 102 % of control

CCOC(=O)CSC(=S)N1CCOCC1
inactive: [17] 94 % of control | [18] 97 % of control | [19] 102 % of control

Nc1cccc(/C=C/c2ccc([N+](=O)[O-])cc2)c1
inactive: [17] 91 % of control | [18] 87 % of control | [19] 94 % of control

Cc1cc(=O)[nH]c(N/N=C/c2c(O)ccc3ccccc23)n1
inactive: [15] 96 % of control | [16] 94 % of control | dose: 400.0 mg/kg/injection, schedule: Q01DX001 (ip), vehicle: saline 89 % of control

CC(=O)OC1C=CCC2C(=O)c3c(c(O)c4ccccc4c3O)C(=O)C12 (stereo unspecified)
inactive: [7] 95 % of control | [8] 95 % of control | [9] 105 % of control | [10] 95 % of control | [11] 100 % of control | [12] 90 % of control

COc1cc2c(cc1OC)C(Cc1ccc(N)cc1)N(C)CC2 (stereo unspecified)
inactive: dose: 10.0 mg/kg/injection, schedule: Q01DX001 (ip), vehicle: saline 87 % of control | dose: 20.0 mg/kg/injection, schedule: Q01DX001 (ip), vehicle: saline 91 % of control | dose: 40.0 mg/kg/injection, schedule: Q01DX001 (ip), vehicle: saline 94 % of control | dose: 80.0 mg/kg/injection, schedule: Q01DX001 (ip), vehicle: saline 98 % of control

COc1ccc(C(C)C(C)=O)cc1 (stereo unspecified)
inactive: [14] 95 % of control

CN1CCC(O)(C#N)CC1
inactive: dose: 7.5 mg/kg/injection, schedule: Q01DX001 (ip), vehicle: saline 101 % of control | dose: 15.0 mg/kg/injection, schedule: Q01DX001 (ip), vehicle: saline 106 % of control
